What was measured:
Type in all cases: in vivo, Carpophilus truncatus
[1] = system: C. truncatus; experiment: Laboratory dual-choice cage bioassays of co-attractant solutions; conditions: Experiment #2: solution lacking one component vs full commercial co-attractant (CL)
Description: Cage bioassays were developed for the rapid screening of beetle attraction to prototype co-attractant solutions. Adult beetles were separated in groups of hundred individuals (mixed sex) and starved for 48 h in (30 cm×30 cm×30 cm) mesh cages in Controlled Environment rooms (29° C., 60% RH, 16L:8D Photoperiod). Two plastic traps made from 30 mL plastic cups comprising four 5-mm holes equidistantly distributed along their circumference and a single hole in the lid were filled with 20 mL of freshly prepared test co-attractant solutions (FIG. 2) and placed inside the mesh cage approximately 15-20 cm apart. Beetles were allowed 48 h to choose between the two solutions. At the end of the experiments, traps were collected in plastic containers and beetles inside each treatment cups (alive or drowned) as well as non-selecting individuals were counted. Experiments were replicated a minimum of ten times for each prototype solution. An attraction index, used to determine the degree of attraction or deterrence of the test solution in comparison to the control, was calculated as follows: (n beetles in test solution)−(n beetles in control)/total n beetles. Attraction indices returned values ranging between −1 (extreme repellence) and +1 (extreme attraction); 0 corresponding to the absence of preference for either solutions. Deviation of the indices from zero was analysed using two tailed t-tests. Cage bioassays were used to test the attraction of C. truncatus to the commercial co-attractant (co-attractant vs water) and to screen the influence of individual constituents of the commercial Carpophilus co-attractant on C. truncatus attraction. The effect of different constituents was assessed by testing the co-attractant (control) against test co-attractant solutions in which one constituent was excluded.
In a first cage experiment (Experiment #1, table 4), the attraction of C. truncatus attraction to the commercial co-attractant (CL) was verified using water as a control treatment (FIG. 14).
In a second experiment (Experiment #2, table 4), the influence of individual components of the commercial co-attractant on C. truncatus was assessed by testing beetle's preferences between test co-attractant solutions in which a single compound was missing against the full formulation.

[2] = system: C. truncatus antennae; experiment: GC-EAD (gas chromatography coupled with electroantennography) screening of odour and pheromone septa extracts; conditions: for EAD: compounds in solvent extracts of commercial pheromone septa, key not given, antennae responded to all but one
Description: Pheromone compounds and other biologically active compounds present in odour extracts were screened by Gas Chromatography coupled with electroantennography (GC-EAD). The same GC setup used for chemical analysis was used in conjunction with an electroantennograph (Ockenfels Syntech GmbH, Germany). An apolar column SLB-5 MS (30 m×0.32 mm×0.25 μm) used as analytical column was connected to a CFT splitter plate (Capillary Flow Technology, Agilent). A constant flow of helium (1 mL/min) used as carrier and make-up gas was maintained towards the mass spectrometer. […] The EAD restrictor was fitted in a 50 cm transfer line (Ockenfels Syntech GmbH, Germany) heated at 250° C. allowing only the last 2 mm segment of the restrictor to protrude inside a glass mixing tube (3.8 mm inner diameter) positioned above the insect preparation and in which a 29 cm/s stream of purified air was applied. The described setup allowed relatively well-synced signals between all three detectors. One-week-old beetles were anesthetized on ice and immobilised in a micropipette tip with a cotton plug, with the upper part of the abdomen exposed. A sharp glass electrode filled with an electrolyte (0.1 N KCl, 3% PVP) was inserted into the head of the beetle (reference) while a similar electrode was positioned on the disc-shaped distal end of the antenna using a micromanipulator (FIG. 1). The antennal signal was amplified and recorded using an IDAC-4 (Ockenfels Syntech, Germany). When a good contact was obtained (checked via a 1% isopentyl acetate “puff” stimulation), an aliquot of volatile extract was injected in the GC and the sensitivity or lack thereof to individual compounds was determined by the overlay of MS/FID and EAD signals. Beetle odour extracts as well as extracts from commercial synthetic Carpophilus pheromones were screened by coupled gas chromatography-electroantennographic detection (GC-EAD) to test for beetle sensitivity to the putative pheromone and those of other Carpophilus species (FIG. 9).

[3] = system: C. truncatus male and female adult beetles; experiment: Y-tube olfactometer bioassays with isolated pheromone fractions; conditions: 20 μl isolated fraction vs hexane control, diet odour in both arms
Description: Beetle orientation to different test odours was tested in a Y-tube glass olfactometer (ID: 2 cm, 10 cm stem and 7.5 cm choice arm length, 70° angle between arms) placed on a thick white paper sheet. All the experiments were conducted in a Controlled Environment Room at 28° C. The olfactometer was placed at a 30° angle to take advantage of beetles' natural negative geotaxis. Both arms of the Y-tube were connected via glass connectors or PTFE tubing to air-tight glass chambers in which different odours were applied. Activated charcoal-filtered air was circulated through the glass chambers entraining test odours to the choice arms of the Y-tube at 400 mL/min. The olfactometer was illuminated from above by dimmable fluorescent light tubes (Fititron, Weiss Gallenkamp, UK) covered by a sheet of UV-permitting diffusing white screen paper (Rosco 216, Germany). Light intensity at both ends of the two choice arms was measured and adjusted to 990 lux using a digital lux meter. Beetles were released individually in the olfactometer's main stem and observed for 10 min. Individuals that crossed the middle of either test arms (4 cm inside the arm; empirically designated as a non-return point) were considered to have made a choice. […] Preferences for male or female odours were assessed in a similar way by testing the beetle's orientation when simultaneous exposed to male and female beetle-infested diet. […]

[4] = system: C. truncatus; experiment: Field trials in almond orchards, black funnel traps; conditions: field trial #3a; simplified co-attractant; FIG. 19
Description: All field trials were conducted in commercial almond orchards located in Mildura area (Victoria, Australia) between 2018 and 2020. Treatments were tested in black funnel traps (supplied by Bugs for Bugs; https://bugsforbugs.com.au/product/Carpophilus-[…]/) placed at ground level and secured using metal fence […] deeply anchored in the soil (FIG. 3). This differs from the conventional use of these traps in stone fruits where traps are suspended on […] 1.5 m height and derives from pilot experiments showing that more C. truncatus are caught when traps are placed on the ground (FIG. 5). An insecticidal strip (dichlorovos) was placed inside the traps to kill captured beetles. […] Beetles responses to different odours in Y-tube olfactometer experiments were analysed using binomial tests, assuming a distribution ratio of 1:1 between the two choice arms as the null-hypothesis. […] The deviation from zero of the attraction indices calculated in cage bioassays was analysed using paired t-tests. Field trial data were analysed as the mean weekly catches per trap over the period of the trials (between 2-6 weeks depending on beetle population density) using generalized linear mixed model fitted with a negative binomial distribution. […]

| Compound | effect of individual component of commercial co-attractant on C. truncatus [1] | EAD [2] | other results |
| --- | --- | --- | --- |
| CCC(C)CO (stereo not shown) [2-methylbutanol] | deterrent effect |  |  |
| C/C=C(C)/C=C(/C=C/CC)CC [(2E,4E,6E)-5-ethyl-3-methyl-2,4,6-nonatriene] |  | ✓ |  |
| C/C=C/C(C)=C/C(C)=C/C(C)=C/C [(2E,4E,6E,8E)-3,5,7-Trimethyl-2,4,6,8-decatetraene] |  | ✓ |  |
| C/C=C(C)/C=C(C)/C=C(/C=C/CC)CC [(2E,4E,6E,8E)-7-ethyl-3,5-dimethyl-2,4,6,8-undecatetraene] |  | ✓ |  |
| CC/C=C/C(=C/C(C)=C/CC)CC [(3E,5E,7E)-6-ethyl-4-methyl-3,5,7-decatriene] |  | ✓ |  |
| C/C=C/C(=C/C(C)=C/C(C)=C/C)CC [Pheromone 1, (2E,4E,6E,8E)-7-Ethyl-3,5-dimethyl-2,4,6,8-decatetraene] |  | ✓ | attraction in Y-tube olfactometer [3]: more attractive than pheromone 2 |
| C/C=C(C)/C=C(C)/C=C(C)/C=C/CC [Pheromone 2, (2E,4E,6E,8E)-3,5,7-trimethyl-2,4,6,8-undecatetraene] |  | ✓ | attraction in Y-tube olfactometer [3]: comparable level of attraction; GC-EAD responses of C. truncatus males and females ([2]; beetle odour extracts): strong and consistent GC-EAD responses |
| CC=O [acetaldehyde] | deterrent effect |  |  |
| CCO [ethanol] | main attractants |  |  |
| CCOC(C)=O [ethyl acetate] | deterrent effect |  |  |
| CC(C)CO [isobutyl alcohol] | no observable effect |  |  |
| CC(C)CCO [isopentyl alcohol] | main attractants |  | C. truncatus attraction at higher concentrations of isopentyl alcohol [4]: significantly increase |

From patent US20240292835A1, “Methods, Compositions and Devices for Insect Control” (Agriculture Victoria Services PTY LTD, priority 2020, published 2024)
